Experimental data reported in publication PMC9323797, “4-Substituted Thieno[3,2-d]pyrimidines as Dual-Stage Antiplasmodial Derivatives” (Pharmaceuticals, 2022).
Where two headings read alike, the source gives them in different places.

How the values were obtained:
[1] = test system: P. berghei; assay: Hepatic-stage antiplasmodial evaluation (PbGFP sporozoites in primary simian hepatocytes, high content imaging); format: cell-based; conditions: mean ± SD of three independent experiments
Text: P. berghei sporozoites constitutively expressing green fluorescent protein (PbGFP, ANKA strain) were obtained by the dissection of salivary glands from infected Anopheles stephensi mosquitoes bred and infected in the insectary facilities of UMR-S 1135 (CIMI, Paris, France). Infected salivary glands were removed by hand dissection, crushed in a potter, and filtered through a 40 μm filter for sporozoite isolation (Cell Strainer, BD BioSciences, San Jose, CA, USA). The sporozoites were counted using a disposable plastic microscope slide (KOVA).
(§1) Primary simian hepatocytes were isolated from liver segments collected from healthy Macaca fascicularis from CEA, Fontenay aux Roses, France. All hepatocytes were obtained using collagenase perfusion, as previously described, and were immediately cryopreserved. One day before infection, the cryopreserved hepatocytes were thawed at 37 °C and were seeded into collagen-coated (5 µg/cm^2 rat tail collagen I, Invitrogen, Carlsbad, CA, USA) 96-well plate, at a density of 80,000 cells per well. They were cultured at 37 °C in 5% CO2 in William’s E medium (Gibco, Life Technologies, Saint Aubin, France) supplemented with 10% of Fetal Bovine Serum FCIII, 5 × 10^–5 M hydrocortisone hemisuccinate (Serb Laboratories, Paris, France), 5 μg per ml bovine insulin (Sigma Aldrich, St. Louis, MO, USA), 2 mM L-glutamine, and 0.02 U per ml-0.02 μg per ml penicillin-streptomycin (Life Technologies) until infection with sporozoites.
(§2) Sporozoites of P. berghei were re-suspended in the above complete medium used for the hepatocytes culture. Simian hepatocytes were inoculated in 50 μL of complete media with 20,000 P. berghei-sporozoites/well in 96-well plates. The infected culture plates were centrifuged for 10 min at 900× g to allow fast parasite sedimentation onto the target cells and were further incubated with the serial dilution of drugs that were prepared in advance. After 3 h of incubation, cultures were washed and further incubated in a fresh medium containing the appropriate drug concentration, which were changed every 24 h during the study period. Cultured hepatocytes were fixed using 4% paraformaldehyde (PFA) for 15 min at room temperature. Host cell and parasite nuclei were labelled with 4′,6-diamidino-2-phenylindole (DAPI). Upon fixation and immunostaining, cell culture plates were analyzed in order to determine the number and size of the parasites using a Cell Insight High Content Screening platform equipped with the Studio HCS software (Thermo Fisher Scientific, Waltham, MA, USA). The parasite size reduction was calculated on the average object area using the total surface area of each selected object (μm^2). To assess the cell toxicity of drugs for hepatic cultures, fixed plates were further scanned for the DAPI signal representing host nuclei. The analysis was based on counting of total cell nuclei. GraphPad Prism 7 statistical software (GraphPad. Software, San Diego, CA, USA) was used for data analysis and graphing. All values were expressed as means and standard deviations (SD).

[2] = test system: HepG2; parameters: method as in PMID 25791675; conditions: cited from earlier work
[3] = Cytotoxicity on primary simian hepatocytes (DAPI count of host cell nuclei); format: cell-based, Macaca fascicularis; conditions: Macaca fascicularis, count of total cell nuclei, mean ± SD of three independent experiments
Experimental: as §1, §2

[4] = test system: P. falciparum K1; parameters: method as in PMID 25791675; conditions: asexual blood stages, K1 strain; cited from earlier work
[5] = test system: HepG2; assay: Cytotoxic evaluation on HepG2 cell line (MTT, 72 h); format: cell-based, human; conditions: toxicity on HepG2 versus EC50 against the erythrocytic stage of P. falciparum
Experimental: (§3) The HepG2 cell line (hepatocarcinoma cell line purchased from ATCC, ref HB-8065) was maintained at 37 °C, 5% CO2, with 90% humidity in MEM supplemented with 10% fetal bovine serum, 1% L-glutamine (200 mM), penicillin (100 U/mL), and streptomycin (100 μg/mL) (complete MEM medium). The evaluation of the cytotoxicity of the tested molecules was performed according to the method of Mosmann, with slight modifications. Briefly, 5.103 cells in 100 μL of the complete medium were inoculated into each well of a 96-well plate and incubated at 37 °C in a humidified 5% CO2. After 24 h incubation, 100 μL of medium with various product concentrations dissolved in DMSO (final concentration less than 0.5% v/v) was added and the plates were incubated for 72 h at 37 °C. Triplicate assays were performed for each sample. Each plate well was then microscope-examined for detecting possible precipitate formation before the medium was aspirated from the wells. A total of 100 μL of MTT (3-(4,5-dimethyl-2-thiazolyl)-2,5-diphenyl-2H-tetrazolium bromide) solution (0.5 mg/mL in medium without FCS) was then added to each well. Cells were incubated for 2 h at 37 °C. After this time, the MTT solution was removed and DMSO (100 μL) was added to dissolve the resulting blue formazan crystals. Plates were shaken vigorously (700 rpm) for 10 min. The absorbance was measured at 570 nm, with 630 nm as a reference wavelength using a TECAN Infinite F-200 Microplate Reader. DMSO was used as a blank and doxorubicin (purchased from Sigma Aldrich, St. Louis, MO, USA) was used as a positive control. Cell viability was calculated as a percentage of control (cells incubated without compound). The 50% cytotoxic concentration (CC50) was determined from the dose–response curve by using the TableCurve software 2D v.5.0. CC50 values represent the mean value calculated from three independent experiments.

[6] = as above; format: cell-based, human; conditions: HepG2 cells (hepatocarcinoma cell line, ATCC HB-8065); human hepatoma cell line HepG2, MTT, 72 h, mean ± SD of three independent experiments
Experimental: as §3

[7] = test system: P. falciparum K1; assay: Blood-stage antiplasmodial evaluation (SYBR Green I fluorescence, 72 h); format: cell-based, Plasmodium falciparum; conditions: asexual blood stages, drug-resistant K1 strain, 72 h incubation, mean ± SD of three independent experiments; for EC50: read-out: P. falciparum K1 EC50
Experimental: A K1 culture-adapted P. falciparum strain resistant to chloroquine, pyrimethamine, and proguanil was used in an in vitro culture. It was maintained in a continuous culture, as described previously by Trager and Jensen. Cultures were maintained in fresh A+ human erythrocytes at 2.5% hematocrit in a complete medium (RPMI 1640 with 25 mM HEPES, 25 mM NaHCO3, and 10% of A+ human serum) at 37 °C under a reduced O2 atmosphere (gas mixture: 10% O2, 5% CO2, and 85% N2). Parasitemia was maintained daily between 1 and 3%. The P. falciparum drug susceptibility test was carried out by comparing quantities of DNA in treated and control cultures of parasite in human erythrocytes, according to a SYBR Green I fluorescence-based method using a 96-well fluorescence plate reader. Compounds, previously dissolved in DMSO (final concentration less than 0.5% v/v), were incubated in a total assay volume of 200 μL (RPMI, 2% hematocrit and 0.4% parasitemia) for 72 h in a humidified atmosphere (10% O2 and 5% CO2) at 37 °C, in 96-well flat bottom plates. Duplicate assays were performed for each sample. After incubation, plates were frozen at […] for 24 h. Then, the frozen plates were thawed for 1 h at 37 °C. A total of 15 μL of each sample was transferred to 96-well flat-bottom non-sterile black plates (Greiner Bio-One, Kremsmünster, Austria) already containing 15 μL of the SYBR Green I lysis buffer (2X SYBR Green I, 20 mM Tris base pH 7.5, 20 mM EDTA, 0.008% w/v saponin, 0.08% w/v Triton X-100). Negative control treated by solvents (DMSO or H2O) and positive controls (chloroquine) were added to each set of experiments. Plates were incubated for 15 min at 37 °C and then read on a TECAN Infinite F-200 spectrophotometer with excitation and emission wavelengths at 485 and 535 nm, respectively. The concentrations of compounds required to induce a 50% decrease in parasite growth (EC50 K1) were calculated from three independent experiments.

[8] = test system: Primary Simian Hepatocytes; assay: Cytotoxicity on primary simian hepatocytes (DAPI count of host cell nuclei); format: cell-based, Macaca fascicularis; conditions: count of total cell nuclei, mean ± SD of three independent experiments
Experimental: as §1, §2

[9] = Plasmodium falciparum, K1, 72 h

Row | Structure (SMILES) | EC50 ([1]; Plasmodium berghei, Hepatocyte) [µM] | CC50 [2] [µM] | CC50 [3] [µM] | EC50 [4] [µM] | selective index [5] | CC50 at 72 h [6] [µM] | EC50 [1] [µM] | P. falciparum K1 EC50 [7] | P. berghei EC50 [1] | EC50 [7, 9] [µM] | EC50 [7] [µM] | Primary Simian Hepatocytes CC50 [8]
1 | Cc1ccc(-c2cc3nc(NC(C)(C)C)[nH]c(=O)c3s2)cc1 [Compound 1, Gamhepathiopine, reference compound] | 24.3 ± 1.6 | 25.6 ± 3.1 | > 200 | 0.2 ± 0.02 |  |  |  |  |  |  |  | 
2 | Cc1ccc(-c2cc3nc(NC(C)(C)C)nc(Cl)c3s2)cc1 [Compound 5, N-(Tert-butyl)-4-chloro-6-(p-tolyl)thieno[3,2-d]pyrimidin-2-amine] | ~15 |  | > 100 |  | 54.7 | 16.4 ± 5.4 | 16.5 ± 8 | submicromolar range |  |  |  | 
3 | Cc1ccc(-c2cc3nc(NC(C)(C)C)nc(I)c3s2)cc1 [Compound 6, N-(Tert-butyl)-4-iodo-6-(p-tolyl)thieno[3,2-d]pyrimidin-2-amine] | 26.7 ± 5.6 |  | > 100 |  |  | 29 ± 5.5 |  | submicromolar range |  |  |  | 
4 | Cc1ccc(-c2cc3nc(NC(C)(C)C)nc(N)c3s2)cc1 [Compound 10a, N^2-(Tert-butyl)-6-(p-tolyl)thieno[3,2-d]pyrimidine-2,4-diamine] | 70.7 ± 9.7 |  | > 50 |  |  | 12.1 ± 4.1 |  | micromolar range | not active | < 2 | 1.4 ± 0.6 | 
5 | CNc1nc(NC(C)(C)C)nc2cc(-c3ccc(C)cc3)sc12 [Compound 10c, N^2-(tert-butyl)-N^4-methyl-6-(p-tolyl)thieno[3,2-d]pyrimidine-2,4-diamine] | ~5 |  | 31.5 ± 6.8 |  |  | 3.7 ± 0.6 | 4.6 ± 5.7 | micromolar range | most active | 1 ± 0.4 |  | 
6 | CCCNc1nc(NC(C)(C)C)nc2cc(-c3ccc(C)cc3)sc12 [Compound 10d, N^2-(tert-butyl)-N^4-propyl-6-(p-tolyl)thieno[3,2-d]pyrimidine-2,4-diamine] | ~5 |  | 22 ± 2.8 |  |  | 3.7 ± 0.3 | 7.1 ± 1.4 | micromolar range |  | 1.1 ± 0.2 |  | 
7 | Cc1ccc(-c2cc3nc(NC(C)(C)C)nc(NCCCCO)c3s2)cc1 [Compound 10f, 4-((2-(tert-butylamino)-6-(p-tolyl)thieno[3,2-d]pyrimidin-4-yl)amino)butan-1-ol] | ~15 |  | 17.7 ± 1.9 |  |  | 2.9 ± 1.1 | 14.1 ± 1.9 | micromolar range |  | 0.7 ± 0.1 |  | 
8 | COCCNc1nc(NC(C)(C)C)nc2cc(-c3ccc(C)cc3)sc12 [Compound 10g, N^2-(tert-butyl)-N^4-(2-methoxyethyl)-6-(p-tolyl)thieno[3,2-d]pyrimidine-2,4-diamine] | ~5 |  | 7.8 ± 2.3 |  |  | 3.7 ± 0.9 | 6.3 ± 0.2 | micromolar range |  | 0.8 ± 0.2 |  | cytotoxic
9 | C[C@H]1c2cccc(O)c2C(=O)C2=C(O)[C@]3(O)C(=O)C(C(N)=O)=C(O)[C@@H](N(C)C)[C@@H]3[C@@H](O)[C@@H]21 [Doxycycline] |  |  |  | 5 |  |  |  |  |  |  |  | 
